# Values joined by “and” are separate entries in the source; they are usually repeats but may differ in a detail not shown here. Equal values may be shown once. Where a SMILES comes first, the peptide text is derived from it.
# Experiments:
# [1] = tested on: F. oxysporum infection of tomato plants; experiment: Tomato plant mortality assay; format: in vivo, Fusarium oxysporum / Solanum lycopersicum; conditions: groups of 10 plants; 3.2 × 10^6 microconidia/mL supplemented with pheromone once at inoculation; 50 d; Kaplan-Meier, log-rank
# Experimental: Tomato plant infection assays were performed as described ([61]) with F. oxysporum microconidia and treatment inoculation as described above. Plants were transferred to a growth and plant survival was recorded daily for 50 d. Plant death was diagnosed as a complete collapse of the stem, without any green parts left. The Kaplan–Meier test was used to assess statistical significance of differences in survival among groups using the log-rank test in GraphPad Prism. The infection experiment was conducted two times with 10 plants per condition.
# [2] = tested on: F. oxysporum in tomato roots; experiment: Quantification of fungal DNA in tomato roots (qPCR); conditions: 3 d after inoculation, washed roots; compared to the untreated infected roots; three biological replicates
# [3] = tested on: Fg.Ste2
# [4] = tested on: Fo.Ste2; format: cell-based, Fusarium oxysporum
# [5] = tested on: Bb.Ste2; format: cell-based, Beauveria bassiana
# [6] = tested on: no_GPCR (negative control lacking a GPCR); format: cell-based, Saccharomyces cerevisiae
# [7] = tested on: F. oxysporum microconidia; experiment: Germination of F. oxysporum microconidia; format: cell-based, Fusarium oxysporum f. sp. lycopersici 4287; parameters: Germination of F. oxysporum microconidia (data of Sup.Fig.10): unit not given here; conditions: for Germination of F. oxysporum microconidia (data of Sup.Fig.10): 400 μM pheromone, 13 h, at least 300 spores counted
# Experimental: For F. oxysporum microconidia production, the strain was grown for 3 to 4 d in liquid potato dextrose broth (PDB) at 28 °C and 170 rpm. Germination media ([10]) was used for assessing the spore germination. RE was prepared by removing 2-wk-old tomato plants from vermiculite and washing the roots to remove any adhering substrates ([11]).
# Supplementary Figure 10. Germination of F. oxysporum microconidia after 13 h of incubation in Germination Media at a cell density of […] microconidia/mL. The assay was performed with 400 μM of pheromone. All points represent the average of three biological replicates in which at least 300 spores were counted. Statistical significance was determined through one-way analysis of variance (ANOVA) with Dunnett’s multiple comparisons (✱p ≤ 0.05).
# [8] = tested on: F. oxysporum germ tubes; conditions: gradient of 400 μM pheromone against the solvent (50% methanol); 13 h; water-agar; three biological replicates; Fig. 5A
# Experimental: For the B. bassiana and F. oxysporum chemotropism assay and plant infection assays the pheromones were dissolved in 50% (v/v) MeOH to reach a concentration of 4,000 μM.
# Fungal chemotropism was conducted as previously described ([11]). For each compound or combination of compounds tested, 300 hyphal tips were scored. All experiments were performed in three biological replicates.
# [9] = tested on: Hj.Hpr2; format: cell-based, Hypocrea jecorina
# [10] = tested on: F. oxysporum on tomato roots; experiment: Tomato root inoculation and fluorescence microscopy of infected roots; format: in vivo, Fusarium oxysporum / Solanum lycopersicum; conditions: exogenous addition of pheromone to microconidia; 3 d after inoculation; fluorescence microscopy
# [11] = tested on: Fo.Ste2; format: cell-based, Fusarium oxysporum; remark: listed apart in the source
# [12] = SC + added peptide, individual replicates (n=3), SC alone: 0, 0, 0
smiles,measurement,setting,value
CC(C)C[C@H](NC(=O)[C@H](CS)NC(=O)[C@@H](N)Cc1c[nH]c2ccccc12)C(=O)N[C@@H](Cc1c[nH]c2ccccc12)C(=O)N[C@@H](C)C(=O)NCC(=O)N[C@@H](CCC(N)=O)C(=O)N1CCC[C@H]1C(=O)N[C@@H](CS)C(=O)N[C@@H](Cc1c[nH]c2ccccc12)C(=O)O [A4] (H-WCLWAGQPCW-OH; N-terminus assumed),Tomato plant survival,[1],no significant difference in plant survival
same,"Fungal biomass in inoculated tomato roots (qPCR of Fol4287 actin gene, 2^−ΔΔCt, normalized to tomato gapdh)",[2],significant reduction in fungal biomass
same,"barcode qPCR of diploids, Fg.Ste2 x Hj.Pheromone","[3]; SC + added peptide, individual replicates (n=3), SC alone: 0.003, 0.004, 0.001",0
same,"barcode qPCR of diploids, Fg.Ste2 x Fo.Pheromone","[3]; SC + added peptide, individual replicates (n=3), SC alone: 0.005, 0.005, 0.013",0.012 and 0.1 and 0.242
same,"barcode qPCR of diploids, Fg.Ste2 x no_Pheromone","[3]; SC + added peptide, individual replicates (n=3), SC alone: 0.012, 0.001, 0.003",0.015 and 0.01 and 0.037
same,"barcode qPCR of diploids, Fg.Ste2 x Bb.Pheromone","[3]; SC + added peptide, individual replicates (n=3), SC alone: 0.012, 0.009, 0.006",0.004 and 0 (2×)
same,"barcode qPCR of diploids, Fg.Ste2 x Fg.Pheromone","[3]; SC + added peptide, individual replicates (n=3), SC alone: 0.206, 0.237, 0.235",0.014 and 0.192 and 0
same,Fold reduction of Fg.Ste2 and Fg.Pheromone interaction,"[3]; consortium in SC media, 10 μM external peptide",0.3 fold
same,Fold increase in diploids containing Fg.Ste2,"[3]; consortium in SC media, 10 μM external peptide, three biological replicates",without increasing
same,"Activation of Fo.Ste2 biosensor, in words",[4],agonists for Fo.Ste2
same,logEC50,[4],-9.288
same,EC50,[4]; read-out: half-maximal effective concentration (EC50),0.516 nM
same,Fold increase in formation of diploids containing Bb.Ste2,[5],8.7 fold
same,"Mean 2 (SC + peptide), Bb share of diploids",[5],0.4075
same,"Mean Diff, SC vs. + peptide",[5]; n = 3,-0.3609
same,"barcode qPCR of diploids, no_GPCR x Fg.Pheromone",[6]; [12],0.035 and 0.012 and 0
same,"barcode qPCR of diploids, no_GPCR x Hj.Pheromone",[6]; [12],0.002 and 0 (2×)
same,"barcode qPCR of diploids, no_GPCR x Bb.Pheromone","[6]; SC + added peptide, individual replicates (n=3), SC alone: 0, 0, 0.004",0.013 and 0.091 and 0
same,"barcode qPCR of diploids, no_GPCR x Fo.Pheromone","[6]; SC + added peptide, individual replicates (n=3), SC alone: 0, 0, 0.007",0.014 and 0.039 and 0.054
same,"barcode qPCR of diploids, no_GPCR x no_Pheromone","[6]; SC + added peptide, individual replicates (n=3), SC alone: 0.001, 0.001, 0",0.04 and 0 and 0.015
same,Fold increase in diploids of the negative control lacking a GPCR,"[6]; consortium in SC media, 10 μM external peptide, P = 0.013",19 fold
same,Germination of F. oxysporum microconidia (data of Sup.Fig.10),[7]; biological replicate 1 (first line),15
same,Germination of F. oxysporum microconidia (data of Sup.Fig.10),[7]; biological replicate 2 (second line),"33,88"
same,Germination of F. oxysporum microconidia (data of Sup.Fig.10),[7]; biological replicate 3 (third line),"6,9"
same,"Mean Diff, Solvent vs. peptide","[7]; Sup.Fig.10, Dunnett's multiple comparisons test, n = 3","25,18"
same,"Mean 2 (peptide), germination","[7]; Sup.Fig.10, Solvent control mean 43,77, mean of n = 3","18,59"
same,"Effect on F. oxysporum microconidia germination, in words","[7]; exogenous addition of 400 μM peptide, 13 h in Germination Media, 3.2 x 106 microconidia/mL",significant reduction
same,Chemotropic response in F. oxysporum germ tubes,[8],significant chemotropic response
same,Fold increase in formation of diploids containing Hj.Hpr2,[9],12.1 fold
same,"Mean 2 (SC + peptide), Hj share of diploids",[9],0.02456
same,"barcode qPCR of diploids, Hj.HPR2 x Bb.Pheromone",[9],0
same,"barcode qPCR of diploids, Hj.HPR2 x no_Pheromone",[9],0
same,"Mean Diff, SC vs. + peptide",[9]; n = 3,-0.02252
same,Adhesion of F. oxysporum germ tubes among themselves or to tomato roots,[10],increased adhesion
same,Fold decline in diploids containing Fo.Ste2,[11],0.2 fold
same,"Mean 2 (SC + peptide), Fo share of diploids",[11],0.1003
same,"Mean Diff, SC vs. + peptide",[11]; n = 3,0.3913

# Source: PMC12582325 (Proceedings of the National Academy of Sciences of the …, 2025)
